# Source: patent publication US20240374581A1, “SALT TYPES OF TRICYCLIC TETRAHYDRO ISOQUINOLINE DERIVATIVE” (JIANGSU HENGRUI PHARMACEUTICALS CO., LTD., priority 2021, published 2024)
# How the values were obtained:
# [1] = Long-term/accelerated stability; assay type: physicochemical; conditions: for Crystal form: up to 3 months
# hERG potassium channels = hERG potassium channels (Homo sapiens (Human), UniProt Q12809); experiment: Blocking of hERG potassium currents (automated patch clamp, HEK293-hERG); assay type: cell-based
# Method: The blocking of hERG potassium currents by the compound disclosed herein was tested in a stable cell strain transfected with hERG potassium channels using automated patch clamp.
# Stably-expressed HEK293-hERG cell strains were subcultured at a density of 1:4 in an MEM/EBSS medium (10% FBS, 400 μg/mL G418, 1% MEM non-essential amino acid solution (100×), and 1% sodium pyruvate solution) and subjected to an automated patch clamp experiment within 48-72 h after the start of the culture. On the day of the experiment, the cells were digested with 0.25% pancreatin, then centrifuged, collected, and resuspended in an extracellular fluid (140 mM NaCl, 4 mM KCl, 1 mM MgCl2, 2 mM CaCl2, 5 mM D-glucose monohydrate, 10 mM Hepes, pH 7.4, 298 mOsm) to form a cell suspension. The cell suspension was placed on the cell bank of the Patchliner instrument that transferred the cells to the chip (NPC-16) using a negative pressure controller. The negative pressure drew individual cells to the wells of the chip. […] Data were recorded and analyzed using the HEAK Patchmaster, HEAK EPC10 patch clamp amplifier (Nanion), Pathliner software and Pathcontrol HTsoftware, and the current of the compound at each concentration and the current of the blank control were analyzed.
# ERα = ERα (Homo sapiens (Human), UniProt P03372); experiment: Degradation of ERα in MCF-7 cells (ELISA); assay type: cell-based; conditions: 16 to 18 h, read-out: EC50, degradation of ERα
# Method: ERα-positive breast cancer cell line MCF-7 cells were cultured in a DMEM/F12 medium (HyClone, SH30023.01) containing 10% fetal bovine serum (Corning, 35-010-CV). […] The 48-well plate was placed in the incubator for 16 to 18 h. A 96-well plate was coated with the capture antibody from the human ERα/NR3A1 total protein assay kit (R&D, DYC5715-5). […] The plate was placed in an incubator at 26° C. overnight. On day 3, the antibody-coated 96-well plate was washed once with PBS, and 200 μL of PBS containing 1% BSA was added to each well. The plate was incubated in an incubator at 37° C. for 1.5 h to be blocked. The cell culture medium supernatant was discarded. […] A biotinylated assay antibody was diluted to 0.4 μg/mL with PBS containing 1% BSA, and then 100 μL of the assay antibody was added to each well. The plate was incubated in an incubator at 37° C. for 1 h. The plate was then washed five more times, and 100 μL of avidin-HRP diluted 200-fold with PBS containing 1% BSA was added to each well. The plate was incubated at 37° C. for 30 min.
# CYP3A4 = CYP3A4 (Homo sapiens (Human), UniProt P08684); experiment: Time-dependent inhibition of site of metabolism of midazolam in human liver microsome CYP3A4; assay type: in vitro ADME
# Method: • 1. Phosphate buffer (20×PBS, purchased from Sangon); • 2. NADPH (ACROS, A2646-71-1); • 3. Human liver microsome (Corning Gentest, Cat No. 452161, Lot No. 9050002, Donor, 36); • 4. ABI QTrap 4000 LC-MS System (AB Sciex); • 5. ZORBAX Extend-C18, 3×50 mm, 3.5 m (Agilent, USA); • 6. CYP probe substrate (midazolam, TRC, M343000/3 μM) and positive control inhibitor (verapamil, Adamas Reagent Co., Ltd, Cat No. 25904A).
# A 100 mM PBS buffer was prepared. A 0.25 mg/mL microsome solution, a 7.5 mM MgCl2 and a 5 mM NADPH solution were prepared using the buffer. A 30 mM stock solution was diluted with DMSO to obtain 30 mM, 10 mM, 3 mM, 1 mM, 0.3 mM, 0.1 mM, 0.03 mM and 0 mM serial solutions I, which were further diluted 200-fold with phosphate buffer (PBS) to obtain serial test solutions II (150, 50, 15, 5, 1.5, 0.5, 0.15 and 0 μM). A midazolam working solution was diluted with PBS to 15 μM.
# The serial test solutions prepared above were well mixed by shaking and aliquoted in 20 μL portions into corresponding reaction plates (+NADPH, T0 and -NADPH groups were set). Three parallel tests were set. 40 μL of the liver microsome working solution was added to each 96-well plate. 20 μL of a corresponding substrate solution was added to the TO plate. 20 μL of NADPH was added to the TO plate and +NADPH group. A timer was started, and the plates were incubated in a water bath at 37° C. After 30 min of incubation, the TO plate was taken out, and the reaction was terminated with 250 μL of an internal standard-containing ACN solution. The +NADPH group was supplemented with 20 μL of the corresponding substrate solution, and the −NADPH group was supplemented with 20 μL of the corresponding substrate solution and […]. A timer was started, and the plates were incubated in a water bath at 37° C. After 30 min of incubation, the plates were taken out, and the reactions were terminated with 250 μL of an internal standard-containing ACN solution. […]
# The IC50 value of the drug for the site of metabolism of midazolam in CYP3A4 was calculated by Graphpad Prism and is shown in Table 7.
# Sequence of CYP3A4 (P08684 whole entry): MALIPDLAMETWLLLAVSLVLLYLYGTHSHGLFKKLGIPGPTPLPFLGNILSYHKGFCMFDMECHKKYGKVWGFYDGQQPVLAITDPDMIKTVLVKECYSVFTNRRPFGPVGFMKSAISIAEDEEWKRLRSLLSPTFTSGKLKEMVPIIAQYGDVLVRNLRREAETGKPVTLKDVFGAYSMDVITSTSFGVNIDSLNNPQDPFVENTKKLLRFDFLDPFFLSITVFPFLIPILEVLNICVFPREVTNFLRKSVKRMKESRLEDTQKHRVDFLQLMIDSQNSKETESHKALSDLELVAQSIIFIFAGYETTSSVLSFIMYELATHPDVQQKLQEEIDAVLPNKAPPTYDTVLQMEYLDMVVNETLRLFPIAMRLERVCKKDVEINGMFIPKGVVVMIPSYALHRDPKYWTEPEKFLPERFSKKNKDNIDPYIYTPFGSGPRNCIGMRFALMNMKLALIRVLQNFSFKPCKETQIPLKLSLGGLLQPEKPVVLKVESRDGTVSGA
# Sequence of ERα (P03372 whole entry): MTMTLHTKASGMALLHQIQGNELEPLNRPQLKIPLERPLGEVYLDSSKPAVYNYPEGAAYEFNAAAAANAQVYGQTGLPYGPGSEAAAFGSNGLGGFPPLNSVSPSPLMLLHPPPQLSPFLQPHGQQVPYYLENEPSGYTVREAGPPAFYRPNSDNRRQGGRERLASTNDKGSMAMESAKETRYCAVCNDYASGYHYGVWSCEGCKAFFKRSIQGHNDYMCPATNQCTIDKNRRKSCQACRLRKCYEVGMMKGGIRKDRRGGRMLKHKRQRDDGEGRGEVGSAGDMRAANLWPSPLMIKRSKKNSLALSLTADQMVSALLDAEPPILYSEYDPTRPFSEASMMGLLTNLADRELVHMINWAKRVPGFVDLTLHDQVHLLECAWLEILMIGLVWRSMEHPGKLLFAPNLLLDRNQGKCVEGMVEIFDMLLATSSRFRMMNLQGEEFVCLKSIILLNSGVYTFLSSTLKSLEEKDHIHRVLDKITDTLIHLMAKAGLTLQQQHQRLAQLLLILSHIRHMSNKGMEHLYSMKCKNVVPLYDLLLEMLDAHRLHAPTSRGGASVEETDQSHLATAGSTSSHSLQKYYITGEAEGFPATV
# Sequence of hERG potassium channels (Q12809 whole entry): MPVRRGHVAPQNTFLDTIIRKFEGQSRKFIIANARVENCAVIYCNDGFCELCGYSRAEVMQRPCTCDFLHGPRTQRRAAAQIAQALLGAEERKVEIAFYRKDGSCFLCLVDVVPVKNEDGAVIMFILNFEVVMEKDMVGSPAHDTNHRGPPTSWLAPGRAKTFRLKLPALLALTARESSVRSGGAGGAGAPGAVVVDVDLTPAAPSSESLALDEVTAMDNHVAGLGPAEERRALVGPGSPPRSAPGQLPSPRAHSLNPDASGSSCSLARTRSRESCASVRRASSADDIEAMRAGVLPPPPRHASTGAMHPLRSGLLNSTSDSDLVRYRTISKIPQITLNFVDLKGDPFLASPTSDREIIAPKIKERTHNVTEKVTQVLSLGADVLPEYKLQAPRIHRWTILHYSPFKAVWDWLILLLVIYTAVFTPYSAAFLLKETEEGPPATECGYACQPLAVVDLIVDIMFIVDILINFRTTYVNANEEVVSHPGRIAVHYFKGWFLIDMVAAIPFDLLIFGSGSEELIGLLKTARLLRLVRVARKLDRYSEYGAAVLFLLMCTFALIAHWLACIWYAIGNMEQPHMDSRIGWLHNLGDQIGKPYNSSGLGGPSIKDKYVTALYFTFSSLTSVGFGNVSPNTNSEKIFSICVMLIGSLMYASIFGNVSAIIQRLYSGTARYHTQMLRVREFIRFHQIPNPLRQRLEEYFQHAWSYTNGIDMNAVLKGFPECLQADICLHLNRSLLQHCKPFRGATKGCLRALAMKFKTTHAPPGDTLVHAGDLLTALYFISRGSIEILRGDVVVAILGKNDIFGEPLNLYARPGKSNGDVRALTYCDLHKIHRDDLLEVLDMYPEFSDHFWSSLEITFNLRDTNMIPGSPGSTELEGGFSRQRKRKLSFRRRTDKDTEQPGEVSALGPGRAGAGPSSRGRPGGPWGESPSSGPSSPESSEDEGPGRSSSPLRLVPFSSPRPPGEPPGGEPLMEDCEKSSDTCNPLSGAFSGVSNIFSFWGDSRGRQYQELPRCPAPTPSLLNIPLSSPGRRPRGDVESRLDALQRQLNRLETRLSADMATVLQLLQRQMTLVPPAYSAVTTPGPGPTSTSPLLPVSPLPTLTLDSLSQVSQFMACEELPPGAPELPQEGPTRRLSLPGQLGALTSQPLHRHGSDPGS
structure (smiles),measurement,setting,value
"[2H]C1([2H])Oc2cc3c(cc2O1)[C@@H](c1ccc(NC2CN(CCCF)C2)cn1)N(CC(F)(F)CO)[C@H](C)C3 [Compound 1, 2,2-Difluoro-3-((5S,7R)-5-(5-((1-(3-fluoropropyl)azetidin-3-yl)amino)pyridin-2-yl)-7-methyl-7,8-dihydro-[1,3]dioxolo[4,5-g]isoquinolin-6(5H)-yl-2,2-d2)propan-1-ol]",Purity (%) 1 month,[1]; 25° C./60% RH,97.1%
same,Purity (%) 2 months,[1]; 25° C./60% RH,96.7%
same,Purity (%) 3 months,[1]; 25° C./60% RH,96.7%
same,Purity (%) 7 days,[1]; 25° C./60% RH,97.1%
same,Purity (%) 14 days,[1]; 25° C./60% RH,97.0%
same,Purity (%) Initial,[1]; 25° C./60% RH,97.1%
same,Crystal form,[1]; 25° C./60% RH,Unchanged
same,Purity (%) 1 month,[1]; 40° C./75% RH,96.5%
same,Purity (%) 2 months,[1]; 40° C./75% RH,95.5%
same,Purity (%) 3 months,[1]; 40° C./75% RH,94.9%
same,Purity (%) 7 days,[1]; 40° C./75% RH,96.8%
same,Purity (%) 14 days,[1]; 40° C./75% RH,96.6%
same,Purity (%) Initial,[1]; 40° C./75% RH,97.1%
same,Crystal form,[1]; 40° C./75% RH,Unchanged
same,IC50,hERG potassium channels,> 30 µM
same,DC50,ERα,0.00038 µM
same,IC50 shift at 30 min,"CYP3A4; human, microsomes",0.7
same,IC50,CYP3A4; pre-incubation with NADPH 30 min,13.1 µM
same,IC50,CYP3A4; pre-incubation without NADPH,19.6 µM
